The values that follow come from patent US12667106B2, “Stabilized mutants of quorum quenching lactonase and use thereof in treatment of pathogens” (priority 2019, dated 2026).

By kcat is commonly meant the maximal rate divided by the concentration of active sites.

Assay [1] has as its target putative parathion hydrolase (PPH) from M. tuberculosis, variant PPH_R2:P4-D5, G58V (G59V in SEQ ID NO: 1 numbering; SEQ ID NO: 2), MBP fusion SEQ ID NO: 11 (Mycobacterium tuberculosis, UniProt P9WHN9, G55V). It counts as biochemical. Conditions: pH 8.3.
For assay [2], the target named is putative parathion hydrolase (PPH) from M. tuberculosis, variant PPH_R2:P8-D12, H171Y (H172Y in SEQ ID NO: 1 numbering; SEQ ID NO: 3), MBP fusion SEQ ID NO: 12 (Mycobacterium tuberculosis, UniProt P9WHN9, H168Y). It counts as biochemical. Conditions: pH 8.3.

On to `CCCC(=O)CC(=O)N[C@H]1CCOC1=O` [C6-oxo-HSL, N-(3-oxo-hexanoyl)-homoserine lactone], for which the kcat in assay [1] is 18.66 ± 1.16 s⁻¹; in assay [2] it was 10.16 ± 1.46 s⁻¹.
